Measured values: BindingDB's records for patent US20240115574 (The Johns Hopkins University, 2024)

The compounds below were run against T1, Sphingomyelin phosphodiesterase 3 (Homo sapiens, UniProt Q9NY59) (assay: Not found).
T1 sequence (Q9NY59 whole entry): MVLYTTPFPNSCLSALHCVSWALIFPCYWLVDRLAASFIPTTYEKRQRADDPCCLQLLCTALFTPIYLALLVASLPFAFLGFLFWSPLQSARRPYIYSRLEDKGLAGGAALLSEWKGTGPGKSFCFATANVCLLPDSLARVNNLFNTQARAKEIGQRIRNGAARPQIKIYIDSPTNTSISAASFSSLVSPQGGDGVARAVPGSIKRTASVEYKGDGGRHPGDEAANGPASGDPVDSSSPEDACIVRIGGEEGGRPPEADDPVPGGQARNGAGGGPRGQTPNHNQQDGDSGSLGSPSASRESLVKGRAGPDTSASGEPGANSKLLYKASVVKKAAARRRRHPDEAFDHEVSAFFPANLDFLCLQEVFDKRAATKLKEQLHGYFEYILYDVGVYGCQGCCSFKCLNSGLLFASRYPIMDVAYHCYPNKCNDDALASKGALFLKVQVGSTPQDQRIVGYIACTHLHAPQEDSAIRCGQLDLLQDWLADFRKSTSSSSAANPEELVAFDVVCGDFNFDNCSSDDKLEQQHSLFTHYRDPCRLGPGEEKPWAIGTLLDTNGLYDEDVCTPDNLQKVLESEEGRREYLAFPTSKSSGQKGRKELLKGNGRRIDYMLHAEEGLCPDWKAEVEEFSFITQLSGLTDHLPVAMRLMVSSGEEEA
Excerpt: Not found

IC50, > 100 µM:
COc1ccc(-n2cnc3c(N4CC[C@@H](NC(C)=O)C4)nc(C)nc32)cc1OC [US20240115574, Entry 2-PROV]
COc1ccc(-n2c(C)nc3c(N4CC[C@@H](NC(C)=O)C4)ncnc32)cc1OC [US20240115574, Entry 5-PROV]
COc1ccc(-n2cnc3c(N4CC[C@@H](NC(C)=O)C4)ncnc32)cc1OC [US20240115574, Entry 6-PROV]
COc1ccc(-c2c(C)nn3c(N4CC[C@@H](NC(C)=O)C4)cc(C)nc23)cc1OC [US20240115574, Entry 7-PROV]
COc1ccc(-n2ncc3c(N4CC[C@@H](NC(C)=O)C4)nc(C)nc32)cc1OC [US20240115574, Entry 10-PROV]
COc1ccc(-c2c3nc(C)nc(N4CC[C@@H](NC(C)=O)C4)c3nn2C)cc1OC [US20240115574, Entry 12-PROV]
COc1ccc(-c2nn(C)c3c(N4CC[C@@H](NC(C)=O)C4)nc(C)nc23)cc1OC [US20240115574, Entry 13-PROV]
COc1ccc(-c2c(C)nn3c(N4CC[C@@H](NC(C)=O)C4)nc(C)nc23)cc1OC [US20240115574, Entry 36-PROV]
